Measurements as given in patent publication US20250320140A1, “USE OF MEDIUM CHAIN PERACIDS FOR BIOFILM INHIBITION IN INDUSTRIAL RECIRCULATING WATER SYSTEMS” (ECOLAB USA INC., priority 2017, published 2025).

Test: Solubility of sulfonated peracids at pH 4
Type: physicochemical
Details: pH of 4

O=C(CCCCCCCCCCS(=O)(=O)O)OO [11-sulfoundecane peroxoic acid]
solubility: about 1.3%
